From ChEMBL document CHEMBL4477189, “Effects of 2,3-Dehydrosilybin and Its Galloyl Ester and Methyl Ether Derivatives on Human Umbilical Vein Endothelial Cells” (J Nat Prod, 2016)
The source made the active and inactive calls. No cut-off for these calls is given here.

Assays:
HUVEC [1] = test: Antimigratory activity in HUVEC assessed as inhibition of cell migration measured after 16 to 20 hrs by crystal violet staining-based microscopic analysis; format: functional; settings: Homo sapiens
HUVEC [2] = test: Antimigratory activity in HUVEC assessed as inhibition of cell migration at 10 uM measured after 16 to 20 hrs by crystal violet staining-based microscopic analysis; format: functional; settings: Homo sapiens
HUVEC [3] = test: Antiproliferative activity in HUVEC assessed as reduction in cell viability measured after 72 hrs by MTT assay; format: functional, cell-based; settings: Homo sapiens
HUVEC [4] = test: Cytotoxicity in HUVEC assessed as reduction in cell viability measured after 24 hrs by MTT assay; format: cell-based; settings: Homo sapiens
RF/6A [5] = test: Antimigratory activity in rhesus monkey RF/6A cells measured after 24 hrs by wound assay; format: functional, cell-based; settings: Macaca mulatta
RF/6A [6] = test: Antiproliferative activity in rhesus monkey RF/6A cells measured after 24 to 72 hrs by MTT assay; format: functional, cell-based; settings: Macaca mulatta
[7] = Antiproliferative activity against bFGF-stimulated BBEC by Coulter particle counter method; format: functional, Bos taurus

| SMILES | IC50 (HUVEC [1]) [µM] | inhibition (HUVEC [2]) | IC50 (HUVEC [3]) [µM] | IC50 (HUVEC [4]) [µM] | inhibition (HUVEC [1]) | IC50 (RF/6A [5]) [µM] | IC50 (RF/6A [6]) [µM] | IC50 [7] [µM] |
| --- | --- | --- | --- | --- | --- | --- | --- | --- |
| COc1cc(C2Oc3cc(-c4oc5cc(O)cc(O)c5c(=O)c4O)ccc3OC2CO)ccc1O (stereo not drawn) [DEHYDROSILYLBIN] | 12.2 | Active | 5.4 | 12 |  |  |  |  |
| COc1cc(C2Oc3cc(-c4oc5cc(OC(=O)c6cc(O)c(O)c(O)c6)cc(O)c5c(=O)c4O)ccc3OC2CO)ccc1O (stereo not drawn) | 4.7 | Active | 1.6 | 3.4 | Dose-dependent effect |  |  |  |
| O=c1c(O)c(-c2ccc(O)c(O)c2)oc2cc(O)cc(O)c12 [QUERCETIN] |  |  |  |  |  | 40 | 70 | 5.4 |
| COc1cc(C2Oc3cc(-c4oc5cc(O)cc(O)c5c(=O)c4OC(=O)c4cc(O)c(O)c(O)c4)ccc3OC2CO)ccc1O (stereo not drawn) | 36.8 | Active | 11.7 | 18.9 |  |  |  |  |
| O=c1cc(-c2ccc(O)c(O)c2)oc2cc(OC3O[C@H](CO)[C@@H](O)[C@H](O)[C@H]3O)cc(O)c12 (stereo partly drawn) |  |  |  |  |  |  |  | 18 |
| COc1cc(C2Oc3cc(-c4oc5cc(O)cc(OC)c5c(=O)c4O)ccc3OC2CO)ccc1O (stereo not drawn) | 11.1 | Active | 6.2 | 62.4 |  |  |  |  |
| COc1cc(O)c2c(=O)c(OC)c(-c3ccc4c(c3)OC(c3ccc(O)c(OC)c3)C(CO)O4)oc2c1 (stereo not drawn) | 49.9 | Active | 8.3 | 43.1 |  |  |  |  |
| COCC1Oc2ccc(-c3oc4cc(O)cc(O)c4c(=O)c3O)cc2OC1c1ccc(O)c(OC)c1 (stereo not drawn) | 10.5 | Active | 5.3 | 28.3 |  |  |  |  |
| O=c1cc(-c2ccc(O)c(O)c2)oc2cc(O)cc(O)c12 [LUTEOLIN] |  |  |  |  |  |  |  | 1.9 |
| COc1cc(O)c2c(=O)c(O)c(-c3ccc4c(c3)OC(c3ccc(O)c(OC)c3)C(CO)O4)oc2c1 (stereo not drawn) | 10.4 | Active | 6.7 | 15.2 |  |  |  |  |
| COc1cc(C2Oc3cc(-c4oc5cc(O)cc(O)c5c(=O)c4OC)ccc3OC2CO)ccc1O (stereo not drawn) | 11.3 | Active | 4.9 | 22.5 |  |  |  |  |
